This is an account of results in paper PMC7700029, “Repurposing Napabucasin as an Antimicrobial Agent against Oral Streptococcal Biofilms” (BioMed Research International, 2020).

Test [1] concerns Streptococcus gordonii DL1. Description: Bacterial susceptibility test, microdilution in BHI (MIC/MBC). Particulars: S. gordonii, planktonic cells. The test is classed as cell-based. As to the method:
(§1) Streptococcus mutans UA159, Streptococcus gordonii DL1, and Streptococcus sanguinis ATCC 10556 were kindly provided by the State Key Laboratory of Oral Diseases (Sichuan University, Chengdu, China). S. mutans, S. gordonii, and S. sanguinis were routinely grown at 37°C under aerobic condition (5% CO2) in brain heart infusion broth (BHI; Difco, Sparks, MD). Inoculum for the experiment was adjusted to 1 × 10^8CFU/mL for S. mutans, S. gordonii, and S. sanguinis based on the OD600 nm versus CFU/mL graph of each bacterium and further 1 : 100 diluted in the growth culture. When needed, medium was supplemented with 1% sucrose (designated BHIS). The minimum inhibitory concentration (MIC) and minimum bactericidal concentration (MBC) of NAP against S. mutans, S. gordonii, and S. sanguinis were determined by a microdilution method in BHI, as described previously. The concentrations of NAP ranged from 0.97 to 1000 μg/mL (twofold dilutions). BHI broth containing equivalent DMSO (1% to 0.001%, v/v) was used as a solvent control and ran simultaneously to control for the possible growth inhibition caused by the added DMSO. CHX was used as a positive control, cell control (test bacteria and BHI broth) was used as a negative control, and BHI broth was used as a blank control.
On the technique in general: Dilution methods test growth across graded concentrations, often in twofold steps.

Test [2] has as its system Streptococcus sanguinis ATCC 10556. The test is described as above. The format is cell-based. Particulars: ATCC10556, S. sanguinis, planktonic cells. As to the method:
as §1

Test [3] deals with Streptococcus mutans UA159. Described as above. Particulars: S. mutans, planktonic cells. The format is cell-based. As for the experimental part: as §1
The subject of test [4] is S. gordonii biofilm. Nature of the test: Reduction of 1-day-developed biofilm, crystal violet (MBRC). Particulars: S. gordonii 1-day-developed biofilm, 24 h, 90% or more reduction. The format is cell-based, Streptococcus gordonii. As for the experimental part: (§2) The effect of NAP on the 1-day-developed biofilm was examined by the minimum biofilm reduction concentration (MBRC). S. mutans, S. gordonii, or S. sanguinis (1 × 10^7CFU/mL, 200 μL/well) in BHIS was added to a 96-well polystyrene tissue culture plate. After anaerobic incubation at 37°C for 24 h, the supernatants were removed and washed with PBS three times without disrupting the integrity of biofilms. Fresh BHIS containing NAP ranging from 0.12 to 125 μg/mL were added to each well and incubated at 37°C for 24 h. The negative control was biofilms in BHIS without NAP. The biofilm was fixed, air-dried, stained, and quantified as described above.

Another test has as its system macrophage RAW264.7. Description: In vitro cytotoxicity/viability, CCK-8. The settings on record: Mus musculus, 5 min, RAW264.7, 5 min exposure, read-out: IC50 (cell viability). The format is cell-based. As for the experimental part: (§3) Cell viability was evaluated by using the Cell Counting Kit-8 (CCK-8, Dojindo, Kumamoto, Japan) assay as described by Park et al.. Test cells were human oral keratinocytes (HOK), human gingival epithelia (HGE), and macrophage RAW264.7 (RAW264.7). Cells were plated in 96-well plates at 10,000 cells/well in minimum essential medium with the Dulbecco's modified Eagle's medium (DMEM) supplemented with 10% fetal bovine serum and 1% antibiotic-antimycotic. The cells were grown in a humidified environment with 5% CO2 at 37°C for 24 hours. Considering the short exposure duration of oral cells to mouth rinses, cells were treated with medium containing NAP (0.12 to 62.5 μg/mL) and positive control CHX for 5 min [27–29]. Then, the cells were washed with PBS twice and were added with the fresh medium (200 μL/well). Each well was added with 10 μL of CCK-8, and after incubation in the CO2 incubator for 1 h to 1.5 h, absorbance was measured at the wavelength of 450 nm. The cell viability was calculated according to the following formula: (%) = (A450oftestgroup − A450ofblankcontrol)/(A450ofnegativecontrol − A450ofblankcontrol) × 100%.

The subject of test [5] is human gingival epithelial cells (HGE). Description: In vitro cytotoxicity/viability, CCK-8. The format is cell-based. Particulars: Epithelial cell, 5 min, 5 min exposure. As to the method: as §3
The test system of test [6] is human oral keratinocytes (HOK). Nature of the test: In vitro cytotoxicity/viability, CCK-8. The settings on record: Keratinocyte, 5 min, 5 min exposure, read-out: IC50 (cell viability). The test is classed as cell-based. As to the method: as §3
The subject of the next test is S. mutans biofilm. Nature of the test: Reduction of 1-day-developed biofilm, crystal violet (MBRC). Particulars: S. mutans 1-day-developed biofilm, 24 h, 90% or more reduction. The test is classed as cell-based, Streptococcus mutans. As for the experimental part:
as §2

Test [7] relates to S. gordonii biofilm. Nature of the test: Biofilm formation inhibition, crystal violet (MBIC). The format is cell-based, Streptococcus gordonii. The settings on record: 24 h, 90% or more inhibition of biofilm formation. As for the experimental part: (§4) The minimum biofilm inhibition concentration (MBIC) was used to evaluate the effect of NAP on biofilm formation. S. mutans, S. gordonii, or S. sanguinis (1 × 10^7CFU/mL, 10 μL/well) were grown in BHIS with twofold serial dilution of NAP (200 μL/well) ranging from 0.12 to 125 μg/mL at 37°C for 24 h. A parallel study was also performed with BHIS as a negative control. Then, the supernatants from the wells were decanted, and the adherent biofilm was washed three times with PBS to remove the planktonic cells. Fixed with methanol for 15 min and air-dried at room temperature, the biofilm was stained with 0.1% (wt/vol) crystal violet (Sigma) for 5 min, rinsed with deionized water until blank control wells were colorless, and added 200 μL of 95% ethanol to each crystal violet-stained well. Subsequently, the plate was rocked 30 min at room temperature, and the absorbance at 595 nm was recorded. The percentage of inhibition was calculated using the equation: (A595ofnegativecontrol − A595ofthetestgroup)/A595ofnegativecontrol × 100%.

Test [8] has as its system S. sanguinis biofilm. The test is described as above. The test is classed as cell-based, Streptococcus sanguinis. The settings on record: 24 h, 90% or more inhibition of biofilm formation. As for the experimental part: as §4
Test [9] relates to S. sanguinis biofilm. Description: Reduction of 1-day-developed biofilm, crystal violet (MBRC). The format is cell-based, Streptococcus sanguinis. The settings on record: S. sanguinis 1-day-developed biofilm, 24 h, 90% or more reduction. As to the method:
as §2

Values after ≈ are worked out from the molar mass of the structure shown. Some results are limits rather than exact numbers.

For orientation: MBC means the lowest tested concentration that kills the bacteria rather than only halting them. Usually MIC stands for the smallest concentration in the dilution series that meets the test's criterion for growth inhibition. By IC50 is commonly meant the midpoint of a concentration-inhibition curve. With `[H]/N=C(\N/C(=N/[H])NCCCCCCNC(=N)NC(=N)Nc1ccc(Cl)cc1)Nc1ccc(Cl)cc1` [CHX, Chlorhexidine], the MBC in [1] came out at 7.81 µg/mL (≈ 15.5 µM); in [2], 3.91 µg/mL (≈ 7.74 µM); in test [3] it was 7.81 µg/mL (≈ 15.5 µM). Moreover, the minimum inhibitory concentration (MIC) amounted to 3.91 µg/mL (≈ 7.74 µM) in test [1], 0.49 µg/mL (≈ 0.969 µM) in test [2] and 1.95 µg/mL (≈ 3.86 µM) in test [3]. Further, the MBRC stood at 15.63 µg/mL in the test on S. gordonii biofilm [4], 62.50 µg/mL in the test with S. mutans biofilm and 3.91 µg/mL in the test with S. sanguinis biofilm [9]. Further, the IC50 (in the test on macrophage RAW264.7; in test [5]; in test [6]) was 31.2 to 62.5 µg/mL (≈ 61.8 to 124 µM) each time. Also, the MBIC in the test with S. gordonii biofilm [7] was determined as 3.91 µg/mL; in the test with S. sanguinis biofilm [8] it was 1.95 µg/mL.
Turning to `CC(=O)c1cc2c(o1)C(=O)c1ccccc1C2=O` [NAP, 2-acetylfuro-1,4-naphathoquinone], the MBC is 0.98 µg/mL (≈ 4.08 µM) in test [1], 15.6 µg/mL (≈ 65.1 µM) in test [2] and 15.6 µg/mL (≈ 65.1 µM) in test [3]. Moreover, the MIC in test [1] was determined as 0.49 µg/mL (≈ 2.04 µM); in [2], 0.49 µg/mL (≈ 2.04 µM); in [3] it was 3.91 µg/mL (≈ 16.3 µM). The values for the MBRC with S. gordonii biofilm [4], in the test with S. mutans biofilm and in the test on S. sanguinis biofilm [9] were 15.63 µg/mL, 62.50 µg/mL and 3.91 µg/mL, respectively. Also, the IC50 (in the test with macrophage RAW264.7; in [5]; in test [6]) was above 62.5 µg/mL throughout. Besides, the MBIC with S. gordonii biofilm [7] is 0.49 µg/mL; in the test with S. sanguinis biofilm [8], 1.95 µg/mL.
